US5101059A, “Amino acid protecting groups” (Research Corporation Technologies, Inc., priority 1989, dated 1992)

Legend:
Format in all cases: physicochemical
[1] = Stability of substituted Fmoc-PCA in acetic acid; details: glacial acetic acid 10 eq., CH2Cl2, room temperature, 48 hours
Procedure: 2. […] The mixture was stirred at room temperature for 48 hours. […] The mixture was washed with half sat'd NaHCO3 (2×10 mL) and water (10 mL). […] 161°-163° C., the IR and ^1 H NMR spectra of which matched that of an authentic sample.
3. Stability of 9-Trimethylsilyl-9-[…] p-Chlorocarbanilate in Acetic Acid: To a solution of 0.37 g of TMS-Fmoc-PCA in 10 mL of CH2 Cl2 was added 0.5 mL (10 eq.) of glacial acetic acid. The mixture was stirred at room temperature. […] The mixture was washed with half sat'd NaHCO3 (2×10 mL) and H2 O (10 mL). […] 124°-126° C., the ^1 H NMR and IR spectra of which matched that of an authentic sample.

[2] = Protolysis of BTS-Fmoc-PCA in trifluoroacetic acid; details: TFA 10.7 eq., CH2Cl2, room temperature, 12 hours
Procedure: 4. Protolysis of 2,7-Bis(trimethylsilyl)-9-fluoroenylmethyl p-Chlorocarbanilate in Trifluoroacetic Acid: To a solution of 0.3 g of BTS-Fmoc-PCA in 8 mL of CH2 Cl2 was added dropwise a solution of 0.5 mL (10.7 eq.) of trifluoroacetic acid in 3.0 mL of methylene chloride over a period of 10 minutes. The mixture was stirred at room temperature for 12 hours, washed with water (2×10 mL), and neutralized with sat'd NaHCO3 (2×10 mL). […] Recrystallization from EtOAc--Skelly B (2:1) gave 0.16 g (75.3%) of the pure urethane as colorless needles, m.p. 184°-185° C., identified by mixture melting point, and IR and NMR spectral comparisons with an authentic sample.

[3] = Base deblocking of substituted urethanes (U-PCA) by various amines; details: dichloromethane, room temperature
Description: 1. General Procedure for Studying the Base Deblocking of the Urethanes Fmoc-PCA, BTS-Fmoc-PCA, DT-Fmoc-PCA, and TMS-Fmoc-PCA: A mixture of urethane (0.05 mmol) in a solution prepared from an equal volume of base (2.5 mmol, 50 eq.) and dichloromethane was stirred at room temperature. The course of the reaction was monitored by TLC with an eluant consisting of Skelly B--ether (3:1).

[4] = Stability of FM-Fmoc-aniline towards catalytic hydrogenolysis; details: 5% Pd/C, 45 psi hydrogen, 24 hours
Procedure: E. Stability of FM-Fmoc-aniline Towards Catalytic Hydrogenolysis: To a mixture of 100 mg of FM-Fmoc-aniline and 63.9 mg of Fmoc-aniline in 30 mL of freshly distilled THF and 15 mL of 100% EtOH was added 30 mg of 5% palladium on charcoal. The mixture was shaken under hydrogen at a pressure of 45 psi in a Parr apparatus for 24 hours. […] Recrystallization of the latter from ethyl acetate gave 89.1 mg (89.1%) of the pure FM-Fmoc-anilineas white crystals, m.p. 243°-244° C. the ^1 H NMR and IR spectra of which matched that of an authentic sample.

[5] = Stability of difluorenyl derivatives in trifluoroacetic acid; details: TFA 500 eq.
Procedure: C. Stability of FM-Fmoc-analine in Trifluoroacetic Acid: To a solution of 51.3 mg of FM-Fmoc-analine in 6 mL of CHCl3 was added 4 mL (500 eq.) of trifluoroacetic acid. The mixture was stirred at room temperature and monitored by TLC with an eluant consisting of Skelly B--ether (2:1). No change was noted after two days. The mixture was diluted with 10 mL of chloroform, and washed with H2 O (2×15 mL) and sat'd NaHCO3 (2×15 mL). […] 241°-243° C., the ^1 H NMR and IR spectra of which matched that of an authentic sample.
D. Stability of Bis(9-fluorenyl)methyl Carbanilate Towards Trifluoroacetic Acid: To a solution of 100 mg of α-F-Fmoc-analine in 12 mL of chloroform was added 8 mL (500 eq.) of trifluoroacetic acid. The mixture was stirred at room temperature and monitored by TLC with an eluant consisting of Skelly B--ether (2:1). No change was noted after 24 hours. The mixture was washed with water (2×10 mL), sat'd NaHCO3 (3×10 mL), and water (10 mL). […] 223°-226° C. (dec.), the ^1 H NMR and IR spectra of which matched that of an authentic sample.

[6] = HPLC monitoring of the deblocking of Nε-(9-xanthenylmethoxycarbonyl)-L-lysine by TBD; details: TBD 20 eq., pyridine and DMF, room temperature
Procedure: B. HPLC Monitoring of the Deblocking of N^ε -(9-Xanthenylmethoxycarbonyl)-L-lysine by TBD: A mixture of […] of H-Lys(Xmoc)-OH and 150 mg (20 eq.) of 1,5,9-triazabicyclo[4,4,0]dec-5-ene (TBD) in 0.3 mL of pyridine and 0.3 mL of DMF was stirred at room temperature. A 20 μL portion of the mixture was neutralized with a solution of 0.3 mL of 5% HCl and 0.3 mL of methanol, filtered, and injected for HPLC analysis which was carried out on a Waters Radial Pak 10-μm C18 reverse phase column (0.8×10 cm) under the following conditions:
Mobile phase: 65% methanol and 35% TFA (0.1% in water)

[7] = Piperidine deblocking of bis(9-fluorenyl)methyl carbanilate; details: piperidine 48.5 eq., anhydrous ether, room temperature
Procedure: B. Piperidine Deblocking of Bis(9-fluorenyl)methyl Carbanilate: To a suspension of 20 mg (0.042 mmol) of αF-Fmoc-analine in 0.2 mL of anhydrous ether was added 0.2 mL (2.02 mmol, 48.5 eq.) of piperidine. The mixture was stirred at room temperature and monitored by TLC with an eluant consisting of Skelly B--CH2 Cl2 (1:1). […] No attempt was made to isolate the individual component of the final reaction mixture.

[8] = CHCl3, room temperature, two days
[9] = chloroform, room temperature, 24 hours

C[Si](C)(C)c1ccc2c(c1)C(COC(=O)Nc1ccc(Cl)cc1)c1cc([Si](C)(C)C)ccc1-2 [BTS-Fmoc-PCA, 2,7-Bis(trimethylsilyl)-9-fluorenylmethyl p-Chlorocarbanilate]
recovered urethane [1]: 95.35% | stability in acetic acid (TLC) [1]: no change | product of protolysis in trifluoroacetic acid [2]: 9-fluorenylmethyl p-chlorocarbanilate | Time for Complete Deblocking ([3]; ethanolamine 50 eq.): 90 min | Time for Complete Scavenging of Dibenzofulvene Analogs ([3]; morpholine 50 eq.): 3.5 hr | Time for Complete Deblocking ([3]; morpholine 50 eq., significant aminodibenzofulvene type adduct formed): 190 min | Time for Complete Scavenging of Dibenzofulvene Analogs ([3]; piperidine 50 eq.): 40 min | Time for Complete Deblocking ([3]; piperidine 50 eq., significant aminodibenzofulvene type adduct formed): < 3 min | Time for Complete Deblocking ([3]; t-butylamine 50 eq.): 270 min

O=C(Nc1ccccc1)OCC1(CC2c3ccccc3-c3ccccc32)c2ccccc2-c2ccccc21 [FM-Fmoc-aniline, 9-(9'-Fluorenylmethyl)-9-fluorenylmethyl Carbanilate]
recovered urethane [4]: 99.4% | recovered urethane [5, 8]: 97.1% | stability in trifluoroacetic acid (TLC) [5, 8]: No change

N[C@@H](CCCCNC(=O)OCC1c2ccccc2Oc2ccccc21)C(=O)O [H-Lys(Xmoc)-OH, N^ε -(9-Xanthenylmethoxycarbonyl)-L-lysine]
time after which no starting material was left (HPLC) [6]: ≤ 4.5 h

O=C(Nc1ccccc1)OC(C1c2ccccc2-c2ccccc21)C1c2ccccc2-c2ccccc21 [α-F-Fmoc-aniline, Bis(9-fluorenyl)methyl Carbanilate]
recovered urethane [5, 9]: 98.3% | stability in trifluoroacetic acid (TLC) [5, 9]: No change | time for total decomposition of the urethane [7]: ≤ 10 min
